Legend:
[1] = tested on: splenocytes from healthy mice; assay: Apoptosis of cultured normal splenocytes (propidium iodide staining); assay type: cell-based; details: VPA 1 mM, 48 hours, FIG. 3B
Procedure: FIG. 3: (A) Secondary acute promyelocytic leukemias were induced in mice as described above. Leukemic mice were then treated with placebo (Ctrl), or VPA (400 mg/kg every 12 hours). Mice were sacrificed 48 hours after beginning of treatments, and then leukemic spleens were fixed and either stained for histological examination (hematoxylin-eosyn, left panels), or analyzed for the presence of apoptotic cells (TUNEL assay, right panels). (B) Secondary leukemias were obtained as above. Mice were sacrificed when leukemic invasion of peripheral organs was >75% (spleen). Splenocytes from healthy mice (taken as control, left panel), or from leukemic mice (>75% blasts, right panel) were put in culture and then treated with VPA (1 mM) for 48 hours. At the end of the treatment, apoptosis was measured by propidium iodide staining. The sub-G1 area indicates the hypodiploid DNA peak corresponding to cells with fragmented DNA undergoing apoptosis.

TRAIL = TRAIL expression in spleen after in vivo treatment (RNAse protection assay); set-up: species or system mice; details: VPA 400 mg/kg every 12 hours, FIG. 4A
Procedure: Leukemic mice or healthy mice (Ctrl) were then treated with placebo (lanes 1, 3), VPA (400 mg/kg every 12 hours), all-trans retinoic acid (a 21-day-release pellet containing 5 mg RA or placebo: lanes 8-9), and VPA plus retinoic acid (lanes 10-11). Mice were sacrificed 18 hours (lanes 4-5), or 36 hours after beginning of treatment (lanes 3, 6-7, 10-11): total RNAs were collected from the spleens (with a >75% invasion of leukemic blasts as assessed by Giemsa staining) and analyzed by RNAse protection assay to check for expression of TRAIL.

Ubc8 = Ubc8 expression in F9 cells (Northern blot, real time PCR); assay type: cell-based, murine; details: 1 mM VPA, FIG. 11
Procedure: FIG. 11 (A) F9 cells were treated for indicated times with 1 mM VPA and abundance of Ubc8 mRNA was determined by Northern blot analysis from 5 μg polyA^+ mRNA with a probe drived from the 3′-UTR of the cDNA. GAPDH mRNA was determined as reference. Phosphorimager analysis was performed for quantitative evaluation and relative values normalized for GAPDH are presented below the graph. One of two experiments with similar results is shown. (B) Ubc8 mRNA was also determined by real time PCR assuming an 1.5-fold amplification per cycle. The amplicon was part of the coding sequence of the Ubc8 mRNA. F9 cells were treated for 17 h with 1 mM VPA (V) or 100 nM TSA (T). Results were normalized for GAPDH expression. Average values ± range of duplicate determinations are shown.

CCCC(CCC)C(=O)O [VPA, Valproic acid]
apoptosis (propidium iodide, sub-G1) [1]: unable to induce apoptosis of normal splenocytes
TRAIL expression in spleen (TRAIL; healthy mice): did not cause induction of TRAIL expression
TRAIL expression in spleen (TRAIL; leukemic mice, 18 or 36 hours): induced TRAIL for the entire duration of treatment
expression of the gene encoding Ubc8 (Ubc8): inducible by VPA
